Data from US4166852A, “Piperazino-pyrimidines and their use as spasmolytic agents” (priority 1974, dated 1979).
Values after ≈ are worked out from the molar mass of the structure shown. Read-outs that look alike come from different tables or passages of the source.

Key:
[1] = acute toxicity, LD 50, CD 1 mice; format: in vivo; settings: mouse, in vivo
Source text: The acute toxicities of the compounds according to the invention have been determined on CD 1 (Charles RIVER) mice by intravenous and oral methods. The LD 50 of each compound has been calculated by the cumulative method of J. J. Reed and H. Muench, (Amer. J. Hyg., 1938, 27, 493).

mouse [2] = test: traction test, mouse; format: in vivo, CD1 (Charles RIVER) mice; settings: po, orally, read-out: Traction AD 50
Source text: (§1) The neuroloptic effects of the compounds according to the invention have been shown with respect to the CD rat (Charles RIVER) taken orally in the catalepsy test according to S. COURVOISIER, R. DUCROT, and L. JULOU, in Psychotropic Drugs, S. GARATTINI and V. GHETTI, Edit.--ELSEVIER Publ. Co., AMSTERDAM, LONDON, NEW YORK, PRINCETON, 1957 P. 373 and also in the traction test of CD1 (Charles RIVER) mice taken orally S. COURVOISIER, Quart. Rev. Psychiat. Neurol. 17, 25 (1956), on the one hand and also in the spontaneous motility test.

dogs = test: anti-emetic activity, apomorphine vomiting test on dogs; format: in vivo; settings: Canis lupus familiaris, po, dogs, orally, apomorphine; read-out: Anti-emetic activity on dogs ED 50
Source text: The anti-emetic properties of the compounds according to the invention have been shown by oral administration of apomorphine to dogs in the vomiting test according to G. Chen and C. J. Ensor, Pharmacol. exp. Therap., 98, 24 (1950).

[3] = test system: isolated duodenum of the rabbit (acetylcholine); test: spasmolytic effect on isolated duodenum, acetylcholine spasm; format: cell-based; settings: Oryctolagus cuniculus, read-out: Spasmolytic effects EC 50 with respect to acetylcholine
Source text: (§2) Ges. Physiol., 102, 123, (1904) with respect to the spasms of the isolated duodenum of rabbits caused either by acetylchlorine for the spasmolytic nemotropes or by barium chloride for the spasmolytic musculotropes.

serotonine bronchospasms = test: anti-serotonine activity, serotonine bronchospasms; format: in vivo, tricoloured guinea-pig; settings: Cavia porcellus, iv; guinea pig, intravenously; read-out: Serotonine bronchospasms ED 50
Source text: (§3) The anti-serotonine activities of the compounds according to the invention have been shown by oral administration to the CD (Charles RIVER) rats using the technique of the serotonine plantar oedema (W. Theobald and R. Domenjoz--Arzneimittel Forsch, 8, 18, 1958 and with the CD 1 (Charles RIVER) mice using the technique known as "head twitch" according to S. J. Corne, R. W. Pickering and B. T. Warner, Brit. J. Pharmacol., 20, 106, (1963). The anti-serotonine activity has also been determined on the one hand on the tricoloured guinea-pig, given intravenously, according to a method derived from H. Konzet and R. Rossler, Arch. exp. Pathol, Pharmakol., 195, 71, (1940) and on the other hand in vitro with respect to the serotonine spasm of the isolated uterus of the rat according to the technique of A. Fanchamps, W. Doepfener, H. Weidman and A. Cerletti, Schw. Med. Worsch, 90, 1940, (1960).

serotonine = test: antiserotonine properties on the whole (all four tests); set-up: species or system rat, mice, guinea pig; settings: comparison within the series
Source text: as §3

solubility = format: physicochemical
[4] = test system: isolated duodenum of the rabbit (barium chloride); test: spasmolytic effect on isolated duodenum, barium chloride spasm; format: cell-based; settings: Oryctolagus cuniculus, read-out: Spasmolytic effects EC 50 with respect to barium chloride
Source text: as §2

head twitch = test: anti-serotonine activity, head twitch; format: in vivo, CD 1 (Charles RIVER) mice; settings: Mus musculus, po; mice, orally; read-out: "Head-twitch" AD 50
Source text: as §3

mice = test: analgesic activity, painful abdominal torsions test with phenylbenzoquinone; format: in vivo, CD 1 (Charles RIVER) mice; settings: Mus musculus, po; mice, orally; read-out: Phenylbenzoquinone test on mice AD 50
Source text: The analgesic properties of the products according to the invention have been shown with CD 1 (Charles RIVER) mice in the painful abdominal torsions test with phenylbenzoquinone according to the technique of E. Siegmund, R. Cadmus and Go.Lu--Proc. Soc. Exp. Biol. Med., 95, 729, (1957).

mouse [5] = test: spontaneous motility test (hypomotility), mouse; format: in vivo, mice; settings: po, 1 h, orally, 60 minutes before measuring, 50% reduction of mean motility, first 5 minutes, read-out: Hypomotility ED 50
Source text: as §1
This latter technique comprises keeping an account of the displacements of the mice by means of a floor of metal strips which enables the spontaneous activity of the animals to be recorded during the first 5 minutes subsequent to their being introduced into the measuring chamber. The products are dispensed 60 minutes before measuring is effected and 10 mice are used per dose. The results are expressed in ED 50 which represents the dose of substance capable of reducing the mean motility of the treated animals by 50% relative to that of the sample group which has only received the dispensing carrier.

[6] = test system: isolated duodenum of the rabbit; test: spasmolytic activity overall; format: cell-based; settings: isolated duodenum of rabbits
Source text: as §2

rat = test: catalepsy test, rat; format: in vivo, CD rat (Charles RIVER); settings: po, orally, read-out: Catalepsy AD 50
Source text: as §1

[7] = test system: serotonine plantar oedema; test: anti-serotonine activity, serotonine plantar oedema; format: in vivo, CD (Charles RIVER) rats; settings: po; rat, orally; read-out: Serotonine plantar oedema AD 50
Source text: as §3

Compound: CCCCCNc1nc(Cl)c(SC)c(N2CCN(C)CC2)n1 [Example 24, 2-n.pentylamino-4-N-methylpiperazino-6-chloro-5-methylthiopyrimidine]
- LD50 ([1]; intravenous, read-out: Acute toxicity for mice LD 50, intravenous): 87 mg/kg
- LD50 ([1]; oral, read-out: Acute toxicity for mice LD 50, orally): ~600 mg/kg
- ED50 (mouse [2]): 210 mg/kg
- ED50 (dogs): 1.9 mg/kg
- EC50 [3]: 0.5 µg/mL (≈ 1.45 µM)
- ED50 (serotonine bronchospasms): 0.05 mg/kg
- antiserotonine properties ranking (serotonine): the greatest antiserotonine properties on the whole
- solubility in dilute hydrochloric acid (solubility; dilute hydrochloric acid): soluble
- solubility in ethanol (alcohol) (solubility; ethanol / alcohol): very soluble
- solubility in water (solubility; water): insoluble
- EC50 [4]: 0.12 µg/mL (≈ 0.349 µM)
- ED50 (head twitch): 25 mg/kg
- ED50 (mice): 100 mg/kg
- ED50 (mouse [5]): 80 mg/kg
- spasmolytic activity type / ranking [6]: most effective
- ED50 (rat): 400 mg/kg
- ED50 [7]: > 300 mg/kg
